Experimental data published in patent US20240425523A1, “Compounds for the Degradation of EGFR Kinase” (Beigene Switzerland GMBH, priority 2023, published 2024).

What was measured:
Assay type in all cases: cell-based
[1] = molecular target: T1, p-EGFR L858R (BaF3-L858R cells) (Homo sapiens, UniProt P00533, L858R); experiment: Cell p-EGFR inhibition assay, HTRF, BaF3-L858R cells; details: 16 h treatment; for Imax (%): maximum percentage of pEGFR inhibition; for IC50: pEGFR inhibition
T1 construct: host or cells: BaF3
How it was run: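 BaF3-L858R cells treated 16 h at 37 °C, 5% CO2 with compound from 10 uM top, 5-fold dilutions, 8 doses, in 0.1% DMSO medium. Lysates read overnight by HTRF p-EGFR antibodies; IC50 fitted to four-parameter curve against DMSO high control.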

[2] = molecular target: T2, EGFR-L858R/C797S (H1975-clone #8 cells) (Homo sapiens, UniProt P00533, C797S/L858R); experiment: Cell degradation of EGFR, HTRF assay, H1975-clone#8 (L858R/C797S) cells; details: 16 h treatment; for DC50: EGFR degradation; for Dmax: maximum percentage of degradation
T2 construct: expressed in transfected cells; host or cells: H1975 (endogenous EGFR knocked out, clone #8)

[3] = molecular target: p-EGFR Del19/C797S (H1975-clone #23 cells) (Homo sapiens, UniProt P00533); experiment: Cell p-EGFR inhibition assay, HTRF, H1975-clone#23 (DEL19/C797S) cells; details: 16 h treatment; for Imax (%): maximum percentage of pEGFR inhibition; for IC50: pEGFR inhibition
How it was run: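 Phospho-EGFR read by overnight HTRF on lysates, normalized to DMSO-treated high control; IC50, Hill slope and Imax fitted. Compounds were applied for 16 h (10 uM top, 5-fold steps, 8 doses) to an H1975 single clone carrying only exogenous Del19/C797S EGFR after sgRNA knockout of endogenous copies.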

[4] = molecular target: T3, EGFR L858R (BaF3-L858R cells) (Homo sapiens, UniProt P00533, L858R); experiment: Cell degradation of EGFR, HTRF assay, BaF3-L858R cells; details: 16 h treatment; for DC50: EGFR degradation; for Dmax: maximum percentage of degradation
T3 construct: host or cells: BaF3
How it was run: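 EGFR L858R levels measured by HTRF antibody pair in lysed BaF3-L858R cells after 16 h compound exposure (8-point 5-fold series from 10 uM final, 37° C). Degradation is relative to DMSO-only cells; DC50 fitted with Hill equation, Dmax taken as the largest percent loss.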

SMILES	Imax (%) [1] [%]	IC50 [1] [nM]	DC50 [2] [nM]	Dmax [2] [%]	Imax (%) [3] [%]	IC50 [3] [nM]	DC50 [4] [nM]	Dmax [4] [%]
Cc1cc2cc(n1)-c1c(C)nn(C)c1OC[C@H]1CC[C@H](C1)CN1/C(=N/C2=O)Nc2ccc(N3CCN(C4CCN(c5cc(F)c([C@H]6CCC(=O)NC6=O)c(F)c5)CC4)C[C@@H]3C)cc21 [Example 195, (R)-3-(2,6-difluoro-4-(4-((S)-3-methyl-4-((7^1R,7^3S,E)-1^1,1^3,2^6-trimethyl-3-oxo-5^2,5^3-dihydro-1^1H,5^1H-9-oxa-4-aza-5(2,1)-benzo[d]imidazola-2(2,4)-pyridina-1(4,5)-pyrazola-7(1,3)-cyclopentanacyclononaphane-5^6-yl)piperazin-1-yl)piperidin-1-yl)phenyl)piperidine-2,6-dione]	90.34	< 0.128	1.13	93.9	99.96	1.44	1.83	90.9
Cc1cc2cc(n1)-c1c(C)nn(C)c1OC[C@H]1CC[C@H](C1)CN1/C(=N/C2=O)Nc2ccc(N3C[C@H](C)N(C4CCN(c5cc(F)c([C@H]6CCC(=O)NC6=O)c(F)c5)CC4)C[C@@H]3C)cc21 [Example 197, (R)-3-(4-(4-((2S,5S)-2,5-dimethyl-4-((7^1R,7^3S,E)-1^1,1^3,2^6-trimethyl-3-oxo-5^2,5^3-dihydro-1^1H,5^1H-9-oxa-4-aza-5(2,1)-benzo[d]imidazola-2(2,4)-pyridina-1(4,5)-pyrazola-7(1,3)-cyclopentanacyclononaphane-5^6-yl)piperazin-1-yl)piperidin-1-yl)-2,6-difluorophenyl)piperidine-2,6-dione]	101.23	9.16	7.24	89.7	103.49	3.38	8.79	74
Cc1cc2cc(n1)-c1c(C)nn(C)c1OC[C@H]1CC[C@H](C1)CN1/C(=N/C2=O)Nc2ccc(N3CCN(CC4CN(c5cc(F)c([C@H]6CCC(=O)NC6=O)c(F)c5)C4)CC3)cc21 [Example 199, (R)-3-(2,6-difluoro-4-(3-((4-((7^1R,7^3S,E)-1^1,1^3,2^6-trimethyl-3-oxo-5^2,5^3-dihydro-1^1H,5^1H-9-oxa-4-aza-5(2,1)-benzo[d]imidazola-2(2,4)-pyridina-1(4,5)-pyrazola-7(1,3)-cyclopentanacyclononaphane-5^6-yl)piperazin-1-yl)methyl)azetidin-1-yl)phenyl)piperidine-2,6-dione]	99.05	< 0.128	2.28	91.8	102.91	2.92	6.02	82.5
Cc1cc2cc(n1)-c1c(C)nn(C)c1OC[C@H]1CC[C@H](C1)CN1/C(=N/C2=O)Nc2ccc(N3C[C@@H](C)N(C4CCN(c5cc(F)c([C@H]6CCC(=O)NC6=O)c(F)c5)CC4)C[C@@H]3C)cc21 [Example 200, (R)-3-(4-(4-((2R,5S)-2,5-dimethyl-4-((7^1R,7^3S,E)-1^1,1^3,2^6-trimethyl-3-oxo-5^2,5^3-dihydro-1^1H,5^1H-9-oxa-4-aza-5(2,1)-benzo[d]imidazola-2(2,4)-pyridina-1(4,5)-pyrazola-7(1,3)-cyclopentanacyclononaphane-5^6-yl)piperazin-1-yl)piperidin-1-yl)-2,6-difluorophenyl)piperidine-2,6-dione]	98.42	< 0.128	1.87	94.6	102.89	1.79	2.1	85.7
Cc1cc2cc(n1)-c1c(C)nn(C)c1OC[C@H]1CC[C@H](C1)CN1/C(=N/C2=O)Nc2ccc(N3CCN(C4CCN(c5cc(F)c([C@H]6CCC(=O)NC6=O)c(F)c5)CC4)C[C@H]3CF)cc21 [Example 202, (R)-3-(2,6-difluoro-4-(4-((S)-3-(fluoromethyl)-4-((7R,7^3S,E)-1^1,1^3,2^6-trimethyl-3-oxo-5^2,5^3-dihydro-1^1H,5^1H-9-oxa-4-aza-5(2,1)-benzo[d]imidazola-2(2,4)-pyridina-1(4,5)-pyrazola-7(1,3)-cyclopentanacyclononaphane-5^6-yl)piperazin-1-yl)piperidin-1-yl)phenyl)piperidine-2,6-dione]	92	9.25	4.8	87.9	100.52	2.48	1.06	92.5
Cc1cc2cc(n1)-c1c(C)nn(C)c1OC[C@H]1CC[C@H](C1)CN1/C(=N/C2=O)Nc2ccc(N3CCN(CC4CN(c5cc(F)c([C@H]6CCC(=O)NC6=O)c(F)c5)C4)[C@H](C(F)F)C3)cc21 [Example 205, (R)-3-(4-(3-(((S)-2-(difluoromethyl)-4-((7R,7^3S,E)-1^1,1^3,2^6-trimethyl-3-oxo-5^2,5^3-dihydro-1^1H,5^1H-9-oxa-4-aza-5(2,1)-benzo[d]imidazola-2(2,4)-pyridina-1(4,5)-pyrazola-7(1,3)-cyclopentanacyclononaphane-5^6-yl)piperazin-1-yl)methyl)azetidin-1-yl)-2,6-difluorophenyl)piperidine-2,6-dione]	92.5	1.22	3.05	85.8	99.83	0.539	5.75	90.3

More lines, in order of falling IC50 [1], values ahead:

Imax (%) [1] [%]	IC50 [1] [nM]	DC50 [2] [nM]	Dmax [2] [%]	Imax (%) [3] [%]	IC50 [3] [nM]	DC50 [4] [nM]	Dmax [4] [%]	SMILES
101.37	6.66	4.41	100	102.48	3.18	7.56	89.7	Cc1cc2cc(n1)-c1c(C)nn(C)c1OC[C@H]1CC[C@H](C1)CN1/C(=N/C2=O)Nc2ccc(N3[C@@H](C)CN(C4CCN(c5cc(F)c([C@H]6CCC(=O)NC6=O)c(F)c5)CC4)C[C@@H]3C)cc21 [Example 198, (R)-3-(4-(4-((3S,5S)-3,5-dimethyl-4-((7^1R,7^3S,E)-1^1,1^3,2^6-trimethyl-3-oxo-5^2,5^3-dihydro-1^1H,5^1H-9-oxa-4-aza-5(2,1)-benzo[d]imidazola-2(2,4)-pyridina-1(4,5)-pyrazola-7(1,3)-cyclopentanacyclononaphane-5^6-yl)piperazin-1-yl)piperidin-1-yl)-2,6-difluorophenyl)piperidine-2,6-dione]
85.84	3.09	3.21	88.8	99.76	2.81	1.61	91.9	Cc1cc2cc(n1)-c1c(C)nn(C)c1OC[C@H]1CC[C@H](C1)CN1/C(=N/C2=O)Nc2ccc(N3C[C@@H](C)N(C4CCN(c5cc(F)c([C@H]6CCC(=O)NC6=O)c(F)c5)CC4)C[C@H]3C)cc21 [Example 196, (R)-3-(4-(4-((2R,5R)-2,5-dimethyl-4-((7^1R,7^3S,E)-1^1,1^32^6-trimethyl-3-oxo-5^2,5^3-dihydro-1^1H,5^1H-9-oxa-4-aza-5(2,1)-benzo[d]imidazola-2(2,4)-pyridina-1(4,5)-pyrazola-7(1,3)-cyclopentanacyclononaphane-5^6-yl)piperazin-1-yl)piperidin-1-yl)-2,6-difluorophenyl)piperidine-2,6-dione]
101.04	2.35	0.76	70.8	100.43	2.74	7.4	76.2	Cc1cc2cc(n1)-c1c(C)nn(C)c1OC[C@H]1CC[C@H](C1)CN1/C(=N/C2=O)Nc2ccc(N3CC4CCC3CN4C3CCN(c4cc(F)c([C@H]5CCC(=O)NC5=O)c(F)c4)CC3)cc21 [Example 193, (3R)-3-(2,6-difluoro-4-(4-(5-((7^1R,7^3S,E)-1^1,1^3,2^6-trimethyl-3-oxo-5^2,5^3-dihydro-1^1H,5^1H-9-oxa-4-aza-5(2,1)-benzo[d]imidazola-2(2,4)-pyridina-1(4,5)-pyrazola-7(1,3)-cyclopentanacyclononaphane-5^6-yl)-2,5-diazabicyclo[2.2.2]octan-2-yl)piperidin-1-yl)phenyl)piperidine-2,6-dione]
94.08	1.17	0.54	90.7	99.52	0.851	1.1	92.1	COC[C@H]1CN(c2ccc3c(c2)N2C[C@@H]4CC[C@H](COc5c(c(C)nn5C)-c5cc(cc(C)n5)C(=O)/N=C/2N3)C4)CCN1C1CN(C2CCN(c3cc(F)c([C@H]4CCC(=O)NC4=O)c(F)c3)CC2)C1 [Example 206, (R)-3-(2,6-difluoro-4-(4-(3-((R)-2-(methoxymethyl)-4-((7R,7^3S,E)-1^1,1^32^6-trimethyl-3-oxo-5^2,5^3-dihydro-1^1H,5^1H-9-oxa-4-aza-5(2,1)-benzo[d]imidazola-2(2,4)-pyridina-1(4,5)-pyrazola-7(1,3)-cyclopentanacyclononaphane-5^6-yl)piperazin-1-yl)azetidin-1-yl)piperidin-1-yl)phenyl)piperidine-2,6-dione]
